In publication PMC12368660, “Synergistic Ciprofloxacin-RWn Peptide Therapy Overcomes Drug Resistance in Gram-Negative Bacteria” (ACS Omega, 2025):
No end group written: not given here.

Assays:
[1] = tested on: human embryonic kidney (HEK293) cells (ATCC CRL-1573); assay type: cell-based; details: 24 h
Method: HEK293 cells were cultured in Dulbecco's modified Eagle's medium (DMEM; Gibco, Thermo Fisher Scientific, Waltham, MA) supplemented with 10% (v/v) fetal bovine serum (FBS; Gibco) and 1% penicillin/streptomycin (Gibco) at 37 °C in a humidified atmosphere containing 5% CO2. Cells were seeded in 384-well plates at a density of 5 × 10^3 cells/well and incubated for 24 h. Compounds were then added to the wells at various concentrations. After a further 24 h incubation, resazurin (Sigma-Aldrich) was added to each well to a final concentration of 44 μM. After 4 h of incubation, fluorescence was measured at excitation/emission wavelengths of 560/590 nm using a Tecan […] microplate reader. Cell viability was expressed as a percentage relative to that of untreated control cells. […] All assays were conducted in duplicate (n = 2) across separate assay plates. […]

[2] = tested on: human umbilical vein endothelial (HUVEC) cells
[3] = cited from earlier work; for Solubility in 1x DPBS, estimated maximum concentration tested or achieved: pH 7.1
Method: Ciprofloxacin (CIP; Sigma-Aldrich, St. Louis, MO) and synthesized peptides were dissolved to prepare stock solutions. […] Solubility Test Results for Synthetic RWn Peptides. Peptide Ultrapure Waterᵃ 1x DPBS (pH 7.1 ± DMSOᵃ Formic Acid ID 0.1)ᵃ (HCOOH)ᵃ RW4 Dissolved (≤10 Dissolved (≤5 mg/mL) Dissolved (≤15 mg/mL) N/A mg/mL) RW4P Dissolved (≤2 Dissolved (≤2 mg/mL) Dissolved (≤10 mg/mL) N/A mg/mL) RW6 Dissolved (≤10 Undissolved Dissolved (≥10 mg/mL) N/A mg/mL) RW6P Dissolved (≤5 Undissolved Dissolved (≥10 mg/mL) N/A mg/mL) RW6-2P Undissolved Undissolved Dissolved (≤2 mg/mL) N/A RW8 Dissolved (≤5 Undissolved Dissolved (≤15 mg/mL) N/A mg/mL) RW8P Undissolved Undissolved Undissolved Dissolved (≤5 mg ...

[4] = tested on: human embryonic kidney (HEK293) cells (ATCC CRL-1573); set-up: method as in earlier work; details: cited from earlier work
[5] = tested on: human umbilical vein endothelial (HUVEC) cells; set-up: method as in earlier work; details: cited from earlier work

| Molecule | HEK293 (CC50) [1] [µg/mL] | HUVEC (CC50) [2] [µg/mL] | Solubility in DMSO, estimated maximum concentration tested or achieved [3] [µg/mL] | Solubility in ultrapure water, estimated maximum concentration tested or achieved [3] [µg/mL] | Solubility in 1x DPBS, estimated maximum concentration tested or achieved [3] [µg/mL] | concentration without detectable cytotoxicity, HEK293 [4] [ng/mL] | concentration without detectable cytotoxicity, HUVEC [5] [ng/mL] | Solubility in formic acid (HCOOH), estimated maximum concentration tested or achieved [3] [µg/mL] |
| --- | --- | --- | --- | --- | --- | --- | --- | --- |
| N=C(N)NCCC[C@H](NC(=O)[C@H](Cc1c[nH]c2ccccc12)NC(=O)[C@H](CCCNC(=N)N)NC(=O)[C@H](Cc1c[nH]c2ccccc12)NC(=O)[C@H](CCCNC(=N)N)NC(=O)[C@H](Cc1c[nH]c2ccccc12)NC(=O)[C@H](CCCNC(=N)N)NC(=O)[C@H](Cc1c[nH]c2ccccc12)NC(=O)[C@H](CCCNC(=N)N)NC(=O)[C@H](Cc1c[nH]c2ccccc12)NC(=O)[C@@H](N)CCCNC(=N)N)C(=O)N[C@@H](Cc1c[nH]c2ccccc12)C(=O)O [RW6] | >32 | >32 | ≥ 10000 | ≤ 10000 | – | – | – | – |
| RWRWPRWRW-NH2 [RW4P] | – | – | ≤ 10000 | ≤ 2000 | ≤ 2000 | – | – | – |
| RWRWPRWRWPRWRW-NH2 [RW6–2P] | – | – | ≤ 2000 | – | – | – | – | – |
| RWRWRWPRWRWRW-NH2 [RW6P] | – | – | ≥ 10000 | ≤ 5000 | – | – | – | – |
| RWRWRWRW [RW4] | >32 | >32 | ≤ 15000 | ≤ 10000 | ≤ 5000 | > 32000 | > 32000 | – |
| RWRWRWRWPRWRWRWRW-NH2 [RW8P] | – | – | – | – | – | – | – | ≤ 5000 |
| RWRWRWRWRWRWRWRW [RW8, arginine-tryptophan-rich antimicrobial peptide, 16 AA] | – | – | ≤ 15000 | ≤ 5000 | – | – | – | – |
